These are literature values, as cited in patent publication US20130150444A1, “MODIFIED RELEASE COMPOSITIONS OF MAGNESIUM VALPROATE” (CADILA HEALTHCARE LIMITED, priority 2011, published 2013).

The conditions of this data set: in comparison with sodium valproate or valproic acid.

With “magnesium 2-propylvalerate [magnesium valproate]”, the absorption rate result was “slower and more regular”.
